Measured values: patent US11400107B2, “Cancer treatments” (NuCana plc, priority 2016, dated 2022)
“Also recorded” adds a separate entry of the source.

Test system: advance progressive cancers refractory to, or relapsed on, all conventional therapies
Experiment: ProGem1 dose escalation clinical study of NUC-1031
Assay type: in vivo, human
Set-up: CA125 level: unit not given here
Source text: The following data were generated in clinical studies of NUC-1031 in human patients with advance progressive cancers that are refractory to, or have relapsed on, all conventional therapies that have been used to date. The results clearly illustrate the ability of NUC-1031 to successfully treat refractory cancers.
Although the primary objectives of the dose escalation part of the study were to determine the Recommended Phase II Dose (RP2D) and safety profile, secondary objectives included determining the PK profile, however effective treatment of patients with a range of refractory cancers has also been observed as part of this study.
A total of 68 patients have been entered into this dose escalation study, of which 49 were evaluable for clinical response in that they have received at least 2 Cycles of NUC-1031 and were therefore eligible for a RECIST 1.1 assessment.
NUC-1031 was administered as a 5 to 30 minute intravenous slow bolus injection. • Schedule A: NUC-1031 was administered on days 1, 8, 15 of a 4 weekly Cycle. • Schedule B: NUC-1031 was administered on days 1, 5, 8, 12, 15, 19, of a 4 weekly Cycle. Evaluable Patients [n=49]
Evaluable patients were patients that received ≥2 Cycles of NUC-1031 and were therefore eligible for a RECIST 1.1 assessment at the end of Cycle 2. Where the disease response duration, measured in months, is followed by a “+” this indicates ongoing disease control as of the latest cut-off date.

[1] = Patient 040, cholangiocarcinoma, 1,000 then 900 mg/m^2 weekly
[2] = Patient 041, breast cancer, 900 then 825 mg/m^2 weekly
[3] = Patient 043, ovarian cancer, 900 then 750 mg/m^2 weekly
[4] = Patient 044, lung cancer, 900 then 825 mg/m^2 weekly
[5] = Patient 046, adrenal carcinoma, 1,000, 900, 750, then 625 mg/m^2 weekly
[6] = Patient 048, ovarian cancer (granulosa cell tumour), 1,000 reduced stepwise to 625 mg/m^2 weekly
[7] = Patient 052 (204), oesophageal cancer, 900 then 825 mg/m^2 weekly
[8] = Patient 057 (209), ovarian cancer, 900, 825, then 750 mg/m^2 weekly
[9] = Patient 058 (210), lung cancer, 825 then 750 mg/m^2 weekly
[10] = Patient 059 (211), cervical cancer, 825, 750, then 625 mg/m^2 weekly
[11] = Patient 061 (213), colorectal cancer, 825 mg/m^2 weekly
[12] = Patient 063 (215), ovarian cancer, 825, 750, then 625 mg/m^2 weekly
[13] = evaluable patients n = 49, RECIST 1.1

C[C@H](NP(=O)(OC[C@H]1O[C@@H](n2ccc(N)nc2=O)C(F)(F)[C@@H]1O)Oc1ccccc1)C(=O)OCc1ccccc1 (stereo partly drawn) [NUC-1031, 2′-deoxy-2′,2′-difluoro-D-cytidine-5′-O-[phenyl (benzoxy-L-alaninyl)] phosphate]
Best response to RECIST [1]: Stable Disease
Duration of response to RECIST [1]: 4 months
Tumour volume (Patient 040, cholangiocarcinoma, end of Cycle 2 CT scan (85 at base)): 82.1
CA19.9 level (Patient 040, cholangiocarcinoma, on 4th June (664 at baseline)): 155
Adverse events (grade) (Patient 041, breast cancer, 900 mg/m^2 weekly, Cycle 3): fatigue (G3)
Best response to RECIST [2]: Stable Disease
Duration of response to RECIST [2]: 4 months
CA 15.3 tumour marker (Patient 041, breast cancer, at C2 (726 at base)): 845
CA 15.3 tumour marker (Patient 041, breast cancer, on 19 May 2014 (726 at base)): 824
Best response to RECIST (Patient 042, cholangiocarcinoma, 900 mg/m^2 weekly): Progressive Disease
Adverse events (grade) (Patient 042, cholangiocarcinoma, 900 mg/m^2 weekly, days 3-5 following study drug): delayed onset fatigue (G2)
Reduction in tumour volume of primary target lesion (Patient 042, cholangiocarcinoma, end of Cycle 2 CT scan): 9%
Adverse events (grade) [3]: delayed onset fatigue (G2); also recorded: Leg oedema developed to G3
Best response to RECIST [3]: Stable Disease
Duration of response to RECIST [3]: 13 months
CA125 level (Patient 043, ovarian cancer, beginning of Cycle 2 (1.099 at baseline as printed)): 783
Reduction in tumour volume from baseline (Patient 043, ovarian cancer, end of Cycle 6 CT scan): 10%
CA125 level (Patient 043, ovarian cancer, on 15th July (1,099 at baseline)): 910
Volume of fluid drained from the pleural effusion (Patient 043, ovarian cancer, on treatment (was 300 ml per week)): 150 ml per week
Adverse events (grade) (Patient 044, lung cancer, 900 mg/m^2 weekly): G3 lung infection
Best response to RECIST [4]: Stable Disease
Duration of response to RECIST [4]: 5 months
Reduction in tumour volume (Patient 044, lung cancer, end of Cycle 2 CT scan): 10%
Best response to RECIST [5]: Stable Disease
Duration of response to RECIST [5]: 11 months
Adverse events (grade) (Patient 046, adrenal carcinoma, Cycle 1 at 1,000 mg/m^2, following Cycle 8 D1 at 900 mg/m^2): delayed onset fatigue, nausea and vomiting (all G3); also recorded: neutropenia (G2)
Reduction in tumour volume from baseline (Patient 046, adrenal carcinoma, end of Cycle 6 CT scan): 12.6%
Best response to RECIST [6]: Stable Disease
Duration of response to RECIST [6]: 8 months
inhibin B (Patient 048, ovarian cancer, August (1,038 prior to study entry)): 1148
inhibin B (Patient 048, ovarian cancer, July 2014 (1,038 prior to study entry)): 1,106
inhibin B (Patient 048, ovarian cancer, September (1,038 prior to study entry)): 1053
Adverse events (grade) (Patient 048, ovarian cancer, following Cycle 1 Day 1 at 1,000 mg/m^2, neutropenia (G3) at Cycle 4): ALT, (G3, a DLT); also recorded: AST and neutropaenia (G2); also recorded: ALP (G1); also recorded: neutropenia (G3)
Adverse events (grade) (Patient 050 (202), oesophageal cancer, 900 mg/m^2, following Cycle 1 Day 1): ALT and fatigue, both G3
Best response to RECIST (Patient 050 (202), oesophageal cancer, 900 mg/m^2 weekly): Progressive Disease
Best response to RECIST (Patient 051 (203), anal cancer, 900 mg/m^2 weekly): Progressive Disease
Best response to RECIST [7]: Stable Disease
Duration of response to RECIST [7]: 5 months
Best response to RECIST (Patient 053 (205), colon cancer, 900 mg/m^2 weekly): Progressive Disease
Best response to RECIST (Patient 055 (207), ovarian cancer, 900, 825, then 625 mg/m^2 weekly): Stable Disease
CA125 level (Patient 055 (207), ovarian cancer, January 2015 (36 at baseline)): 24
Reduction in tumour volume from baseline (Patient 055 (207), ovarian cancer, end of Cycle 6 CT scan): 18%
Duration of response to RECIST (Patient 055 (207), ovarian cancer, ongoing, 900, 825, then 625 mg/m^2 weekly): ≥ 10 months
Adverse events (grade) (Patient 057 (209), ovarian cancer, 900 mg/m^2, Cycle 1 Day 15): anaemia and ascites both G3
Best response to RECIST [8]: Stable Disease
Duration of response to RECIST [8]: 5 months
Reduction in tumour volume from baseline (Patient 057 (209), ovarian cancer, end of Cycle 4 CT scan): 10%
Adverse events (grade) (Patient 058 (210), lung cancer, 825 mg/m^2, Cycle 1): G3 transaminitis (ALT), a DLT
Best response to RECIST [9]: Stable Disease
Duration of response to RECIST [9]: 4 months
Best response to RECIST [10]: Stable Disease
Duration of response to RECIST [10]: 7 months
Adverse events (grade) (Patient 059 (211), cervical cancer, thrombocytopenia in Cycle 1 at 825 mg/m^2, fatigue in Cycle 3 at 750 mg/m^2): thrombocytopenia (G3); also recorded: fatigue (G3)
Best response to RECIST (Patient 060 (212), pancreatic cancer, 825 mg/m^2 weekly): Progressive Disease
Adverse events (grade) (Patient 060 (212), pancreatic cancer, 825 mg/m^2 weekly, after Cycle 1): ALP, AST, ALT, all G3
Best response to RECIST [11]: Stable Disease
Duration of response to RECIST [11]: 3 months
Reduction in tumour volume (Patient 061 (213), colorectal cancer, end of Cycle 2 CT scan): 2%
Best response to RECIST [12]: Stable Disease
Duration of response to RECIST [12]: 3 months
Adverse events (grade) (Patient 063 (215), ovarian cancer, Cycle 3 at 750 mg/m^2): fatigue (G3)
Best response to RECIST (Patient 064 (216), trophoblastic cancer, 825 mg/m^2 weekly): Progressive Disease
Best response to RECIST (Patient 066 (218), colorectal cancer, 825, 750, then 625 mg/m^2 weekly): Stable Disease
Duration of response to RECIST (Patient 066 (218), colorectal cancer, ongoing, 825, 750, then 625 mg/m^2 weekly): ≥ 8 months
Reduction in tumour volume from baseline (Patient 066 (218), colorectal cancer, unscheduled CT scan on 30th December): 16%
Adverse events (grade) (Patient 067 (219), osteosarcoma, 825 mg/m^2 weekly, towards the end of each Cycle): neutropenia G2
Best response to RECIST (Patient 067 (219), osteosarcoma, 825 then 750 mg/m^2 weekly): Stable Disease
Increase (tumour) from baseline (Patient 067 (219), osteosarcoma, EOS CT scan): 1%
Duration of response to RECIST (Patient 067 (219), osteosarcoma, ongoing, 825 then 750 mg/m^2 weekly): ≥ 7 months
Best response to RECIST (Patient 068 (220), lung cancer, 825 mg/m^2 weekly): Progressive Disease
Best response to RECIST (Patient 069 (221), colorectal cancer, 825 reduced stepwise to 500 mg/m^2 weekly): Stable Disease
Adverse events (grade) (Patient 069 (221), colorectal cancer, Cycle 3 at 825 mg/m^2, after Cycle 4 D1 at 750 mg/m^2, Cycle 5 at 675 mg/m^2): neutropenia (G4); also recorded: neutropenia and leukopenia, G3; also recorded: neutropenia and leukopenia, G2
Response on PET scan (Patient 069 (221), colorectal cancer, PET scan on 30/10, 825 mg/m^2 weekly): Partial Response
Reduction in tumour volume from baseline (Patient 069 (221), colorectal cancer, end of C2 CT scan): 11%
Reduction in tumour volume from baseline (Patient 069 (221), colorectal cancer, end of C4 CT scan): 26%
Duration of response to RECIST (Patient 069 (221), colorectal cancer, ongoing, 825 reduced stepwise to 500 mg/m^2 weekly): ≥ 7 months
Best Overall Response: Partial Responses [13]: 5 (10%) patients (%)
Best Overall Response: Progressive Disease [13]: 11 (22%) patients (%)
Best Overall Response: Stable Disease [13]: 33 (67%) patients (%)
